{"source": "paper PMC7897990", "about": "“TriTOX: A novel Trichomonas vaginalis assay platform for high-throughput screening of compound libraries” (International Journal for Parasitology: Drugs and Drug …, 2021)", "key": {"[1]": {"test_system": "nontumorigenic neonatal foreskin fibroblast (NFF) cell line"}, "[2]": {"test_system": "Trichomonas vaginalis G3 trophozoites"}, "[3]": {"details": "NFF fibroblasts, single concentration 5 µg/mL"}, "[4]": {"details": "HTS replicate 1, parasite screen 1 µg/mL"}, "[5]": {"details": "HTS replicate 2, parasite screen 1 µg/mL"}, "[6]": {"details": "NFF fibroblast screen at 5 µg/mL, A = active, I = inactive"}, "[7]": {"details": "HTS, parasite screen at 1 µg/mL, replicate 1"}, "[8]": {"details": "HTS, parasite screen at 1 µg/mL, replicate 2"}, "[9]": {"details": "NFF_NS1 screen at 5 µg/mL, NFF cells"}, "[10]": {"details": "parasite screen at 1 µg/mL, replicate 1"}, "[11]": {"details": "parasite screen at 1 µg/mL, replicate 2"}, "[12]": {"details": "NFF_NS1 screen 5 µg/mL, single concentration"}, "[13]": {"details": "HTS single concentration, parasite screen 1 µg/mL, replicate 1"}, "[14]": {"details": "HTS single concentration, parasite screen 1 µg/mL, replicate 2"}, "[15]": {"details": "replicate 1, parasite screen at 1 µg/mL"}, "[16]": {"details": "replicate 2, parasite screen at 1 µg/mL"}}, "note": "Read-outs that look alike come from different tables or passages of the source.", "data": [{"compound": "CCOC(=O)[C@H](Cc1ccccc1)NC(=O)c1cc(Cl)c2c(c1O)C(=O)O[C@H](C)C2", "note": "[Ochratoxin C]", "values": [{"measurement": "NFF_Activity", "setting": "[1]; [3]", "value": "I (otherwise these were reported as inactive (I))"}, {"measurement": "T.vaginalis_%inb_Rep1", "setting": "[2]; [4]", "value": 15.37, "unit": "%"}, {"measurement": "T.vaginalis_%inb_Rep2", "setting": "[2]; [5]", "value": 4.81, "unit": "%"}]}, {"compound": "CO[C@H]1/C=C\\C=C(\\C)C[C@H](C)[C@H](O)[C@H](C)/C=C(C)\\C=C(\\C)C(=O)O[C@@H]1[C@@H](C)[C@@H](O)[C@H](C)[C@@]1(O)C[C@@H](OC(=O)/C=C/C(=O)O)[C@H](C)[C@@H](C(C)C)O1", "note": "[TS 155-2]", "values": [{"measurement": "NFF_Activity", "setting": "[1]; [6]", "value": "I (otherwise these were reported as inactive (I))"}, {"measurement": "T.vaginalis_%inb_Rep1", "setting": "[2]; [7]", "value": 71.89, "unit": "%"}, {"measurement": "T.vaginalis_%inb_Rep2", "setting": "[2]; [8]", "value": 89.46, "unit": "%"}]}, {"compound": "CCCCCCCCCCCC[C@@H](C(=O)O)[C@H](C)C(=O)O", "note": "[BIA-R1904]", "values": [{"measurement": "NFF_Activity", "setting": "[1]; [9]", "value": "I (otherwise these were reported as inactive (I))"}, {"measurement": "T.vaginalis_%inb_Rep1", "setting": "[2]; [10]", "value": 13.79, "unit": "%"}, {"measurement": "T.vaginalis_%inb_Rep2", "setting": "[2]; [11]", "value": 5.71, "unit": "%"}]}, {"compound": "CC[C@H]1C[C@@H]2CC[C@@H](O2)[C@@H](C)C(=O)O[C@H](CC)C[C@H]2CC[C@H](O2)[C@H](C)C(=O)O[C@@H](C)C[C@@H]2CC[C@@H](O2)[C@@H](C)C(=O)O[C@H](CC)C[C@H]2CC[C@H](O2)[C@H](C)C(=O)O1", "note": "[Trinactin]", "values": [{"measurement": "NFF_Activity", "setting": "[1]; [6]", "value": "I (otherwise these were reported as inactive (I))"}, {"measurement": "T.vaginalis_%inb_Rep1", "setting": "[2]; [7]", "value": 11.27, "unit": "%"}, {"measurement": "T.vaginalis_%inb_Rep2", "setting": "[2]; [8]", "value": 13.47, "unit": "%"}]}, {"compound": "CC(=O)NCCc1c[nH]c2ccc(O)cc12", "note": "[BIA-A1738]", "values": [{"measurement": "NFF_Activity", "setting": "[1]; [12]", "value": "I (otherwise these were reported as inactive (I))"}, {"measurement": "T.vaginalis_%inb_Rep1", "setting": "[2]; [13]", "value": 13.41, "unit": "%"}, {"measurement": "T.vaginalis_%inb_Rep2", "setting": "[2]; [14]", "value": 15.18, "unit": "%"}]}, {"compound": "CC(C)C[C@H]1C(=O)O[C@H](C(C)C)C(=O)N(C)[C@@H](CC(C)C)C(=O)O[C@H](C(C)C)C(=O)N(C)[C@@H](CC(C)C)C(=O)O[C@H](C(C)C)C(=O)N(C)[C@@H](CC(C)C)C(=O)O[C@H](C(C)C)C(=O)N1C", "note": "[BIA-B1557]", "values": [{"measurement": "NFF_Activity", "setting": "[1]; [12]", "value": "I (otherwise these were reported as inactive (I))"}, {"measurement": "T.vaginalis_%inb_Rep1", "setting": "[2]; [13]", "value": 15.24, "unit": "%"}, {"measurement": "T.vaginalis_%inb_Rep2", "setting": "[2]; [14]", "value": 16.12, "unit": "%"}]}, {"compound": "Cc1cc(O)cc(=O)o1", "note": "[BIA-H1736]", "values": [{"measurement": "NFF_Activity", "setting": "[1]; NFF cells, screen at 5 µg/mL", "value": "I (otherwise these were reported as inactive (I))"}, {"measurement": "T.vaginalis_%inb_Rep1", "setting": "[2]; [15]", "value": 11.05, "unit": "%"}, {"measurement": "T.vaginalis_%inb_Rep2", "setting": "[2]; [16]", "value": 13.86, "unit": "%"}]}, {"compound": "CCC(C)C(=O)OC1CCC=C2C=CC(C)C(CCC3CC(O)CC(=O)O3)C21", "note": "(centres unmarked) [BIA-M1209]", "values": [{"measurement": "NFF_Activity", "setting": "[1]; NFF cells, screen at 5 µg/mL", "value": "I (otherwise these were reported as inactive (I))"}, {"measurement": "T.vaginalis_%inb_Rep1", "setting": "[2]; [15]", "value": 12.32, "unit": "%"}, {"measurement": "T.vaginalis_%inb_Rep2", "setting": "[2]; [16]", "value": 10.01, "unit": "%"}]}, {"compound": "CC[C@H](C)C(=O)O[C@H]1C[C@@H](C)C=C2C=C[C@H](C)[C@H](CC[C@@H]3C[C@@H](O)CC(=O)O3)[C@H]21", "note": "[BIA-L1264]", "values": [{"measurement": "NFF_Activity", "setting": "[1]; NFF cells, screen at 5 µg/mL", "value": "A (active (A) compounds having >25% inhibitory activity)"}, {"measurement": "T.vaginalis_%inb_Rep1", "setting": "[2]; [15]", "value": 13.08, "unit": "%"}, {"measurement": "T.vaginalis_%inb_Rep2", "setting": "[2]; [16]", "value": 12.64, "unit": "%"}]}, {"compound": "CO[C@@H]1C[C@H]2C=C[C@H]3[C@H]4O[C@]2(/C(C)=C\\[C@@H](C)[C@@H]([C@@H](C)O)OC1=O)[C@@H]3[C@H](O)[C@@H](C)[C@H]4O", "note": "[Nodusmicin]", "values": [{"measurement": "NFF_Activity", "setting": "[1]; [3]", "value": "I (otherwise these were reported as inactive (I))"}, {"measurement": "T.vaginalis_%inb_Rep1", "setting": "[2]; [4]", "value": 11.16, "unit": "%"}, {"measurement": "T.vaginalis_%inb_Rep2", "setting": "[2]; [5]", "value": 10.52, "unit": "%"}]}, {"compound": "CN[C@@H]1C[C@H]2O[C@@](C)([C@@H]1OC)n1c3ccccc3c3c4c(c5c6ccccc6n2c5c31)C(=O)NC4", "note": "[BIA-S1086]", "values": [{"measurement": "NFF_Activity", "setting": "[1]; [9]", "value": "A (active (A) compounds having >25% inhibitory activity)"}, {"measurement": "T.vaginalis_%inb_Rep1", "setting": "[2]; [10]", "value": 72.52, "unit": "%"}, {"measurement": "T.vaginalis_%inb_Rep2", "setting": "[2]; [11]", "value": 83.24, "unit": "%"}]}, {"compound": "[N-]=[N+]=NCC(=O)N[C@H](CO)[C@H](O)c1ccc([N+](=O)[O-])cc1", "note": "[BIA-A1485]", "values": [{"measurement": "NFF_Activity", "setting": "[1]; [12]", "value": "I (otherwise these were reported as inactive (I))"}, {"measurement": "T.vaginalis_%inb_Rep1", "setting": "[2]; [13]", "value": 12.55, "unit": "%"}, {"measurement": "T.vaginalis_%inb_Rep2", "setting": "[2]; [14]", "value": 16.12, "unit": "%"}]}, {"compound": "C[C@H]1CC[C@H]2[C@@H](C=C[C@@H]3[C@H]4[C@@H](C)O[C@]5(O)[C@@H](CO)N(C)C(=O)[C@]45C(=O)[C@@]32C)C1", "note": "[Fusarisetin A]", "values": [{"measurement": "NFF_Activity", "setting": "[1]; NFF_NS1 screen at 5 µg/mL", "value": "I (otherwise these were reported as inactive (I))"}, {"measurement": "T.vaginalis_%inb_Rep1", "setting": "[2]; [7]", "value": 14.05, "unit": "%"}, {"measurement": "T.vaginalis_Absorbance_Rep1", "setting": "[2]; HTS, parasite screen at 1 µg/mL, replicate 1, raw absorbance", "value": 0.979}, {"measurement": "T.vaginalis_%inb_Rep2", "setting": "[2]; [8]", "value": 15.01, "unit": "%"}, {"measurement": "T.vaginalis_Absorbance_Rep2", "setting": "[2]; HTS, parasite screen at 1 µg/mL, replicate 2, raw absorbance", "value": 0.869}]}, {"compound": "Cc1cc(OC(=O)c2c(C)cc(O)cc2O)cc(O)c1C(=O)O", "note": "[BIA-L1669]", "values": [{"measurement": "NFF_Activity", "setting": "[1]; NFF cells, screen at 5 µg/mL", "value": "I (otherwise these were reported as inactive (I))"}, {"measurement": "T.vaginalis_%inb_Rep1", "setting": "[2]; [15]", "value": 11.51, "unit": "%"}, {"measurement": "T.vaginalis_%inb_Rep2", "setting": "[2]; [16]", "value": 3.53, "unit": "%"}]}, {"compound": "CCC(C=CC1OC(=O)C=CC1C)=CC(C)CC=CC(C)=CC(C)C(=O)C(C)C(O)C(C)CC(C)=CC(=O)O", "note": "(centres unmarked) [BIA-L1046]", "values": [{"measurement": "NFF_Activity", "setting": "[1]; NFF cells, screen at 5 µg/mL", "value": "A (active (A) compounds having >25% inhibitory activity)"}, {"measurement": "T.vaginalis_%inb_Rep1", "setting": "[2]; [15]", "value": 99.95, "unit": "%"}, {"measurement": "T.vaginalis_%inb_Rep2", "setting": "[2]; [16]", "value": 96.86, "unit": "%"}]}, {"compound": "O=[N+]([O-])c1ncc[nH]1", "note": "[BIA-A1690]", "values": [{"measurement": "NFF_Activity", "setting": "[1]; [12]", "value": "I (otherwise these were reported as inactive (I))"}, {"measurement": "T.vaginalis_%inb_Rep1", "setting": "[2]; [13]", "value": 15.19, "unit": "%"}, {"measurement": "T.vaginalis_%inb_Rep2", "setting": "[2]; [14]", "value": 9.83, "unit": "%"}]}, {"compound": "O=c1cc2ccocc-2o1", "note": "[BIA-K1792]", "values": [{"measurement": "NFF_Activity", "setting": "[1]; NFF cells, screen at 5 µg/mL", "value": "I (otherwise these were reported as inactive (I))"}, {"measurement": "T.vaginalis_%inb_Rep1", "setting": "[2]; [15]", "value": 12.93, "unit": "%"}, {"measurement": "T.vaginalis_%inb_Rep2", "setting": "[2]; [16]", "value": 13.15, "unit": "%"}]}]}
